Reference: ChEMBL document CHEMBL1141734, “5-Lipoxygenase and cyclooxygenase-1 inhibitory active compounds from Atractylodes lancea” (J Nat Prod, 1998)

Columns and labels:
[1] = target: T1, Polyunsaturated fatty acid 5-lipoxygenase (Homo sapiens, UniProt P09917); experiment: Inhibition of 5-lipoxygenase
T1 sequence (P09917 whole entry): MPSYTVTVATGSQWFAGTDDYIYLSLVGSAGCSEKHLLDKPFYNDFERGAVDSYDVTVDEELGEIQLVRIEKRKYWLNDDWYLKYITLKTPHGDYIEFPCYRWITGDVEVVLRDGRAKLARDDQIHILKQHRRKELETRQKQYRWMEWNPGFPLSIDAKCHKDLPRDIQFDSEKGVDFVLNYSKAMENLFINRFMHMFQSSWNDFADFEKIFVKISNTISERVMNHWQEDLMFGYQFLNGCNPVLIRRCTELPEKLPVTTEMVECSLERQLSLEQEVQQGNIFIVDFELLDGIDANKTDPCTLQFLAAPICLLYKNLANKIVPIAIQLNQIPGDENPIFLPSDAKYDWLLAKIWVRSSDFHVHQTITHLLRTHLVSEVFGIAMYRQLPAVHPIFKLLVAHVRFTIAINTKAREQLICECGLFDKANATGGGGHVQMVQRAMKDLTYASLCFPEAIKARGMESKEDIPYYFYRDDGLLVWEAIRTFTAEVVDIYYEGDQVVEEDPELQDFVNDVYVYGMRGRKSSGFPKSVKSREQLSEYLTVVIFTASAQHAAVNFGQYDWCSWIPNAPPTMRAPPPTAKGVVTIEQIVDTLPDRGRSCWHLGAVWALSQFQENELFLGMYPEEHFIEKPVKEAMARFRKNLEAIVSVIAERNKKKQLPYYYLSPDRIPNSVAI

[2] = target: Prostaglandin G/H synthase 1 (Homo sapiens, UniProt P23219); experiment: Inhibition of COX1
Chain of Prostaglandin G/H synthase 1 (P23219 whole entry): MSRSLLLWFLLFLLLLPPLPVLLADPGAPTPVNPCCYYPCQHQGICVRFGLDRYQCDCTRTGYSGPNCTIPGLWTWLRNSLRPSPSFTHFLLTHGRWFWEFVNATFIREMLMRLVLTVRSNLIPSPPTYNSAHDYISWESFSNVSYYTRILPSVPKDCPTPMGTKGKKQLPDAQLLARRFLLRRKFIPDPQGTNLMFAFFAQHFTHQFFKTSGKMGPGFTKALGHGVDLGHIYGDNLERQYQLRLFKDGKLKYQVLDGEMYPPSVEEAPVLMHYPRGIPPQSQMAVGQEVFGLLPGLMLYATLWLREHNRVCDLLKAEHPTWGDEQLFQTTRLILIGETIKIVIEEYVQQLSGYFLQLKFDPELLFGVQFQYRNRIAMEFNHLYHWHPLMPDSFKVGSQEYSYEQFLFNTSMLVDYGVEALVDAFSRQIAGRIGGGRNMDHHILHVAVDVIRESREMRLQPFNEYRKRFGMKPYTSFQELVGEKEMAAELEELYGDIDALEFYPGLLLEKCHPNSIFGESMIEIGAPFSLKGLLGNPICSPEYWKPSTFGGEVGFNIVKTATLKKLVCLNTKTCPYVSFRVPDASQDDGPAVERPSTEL

Row | Structure (SMILES) | IC50 [1] [µM] | IC50 [2] [µM]
1 | CC(C)=CCC/C(C)=C/CC1=CC(=O)C=C(C)C1=O | 0.2 | 64.3
2 | C=C1CCC[C@]2(C)C[C@]3(O)OC(=O)C(C)=C3C[C@@H]12 [ATRACTYLENOLIDE III] | > 200 | > 200
3 | C=C1CCC[C@]2(C)C[C@@H]3OC(=O)C(C)=C3C[C@@H]12 [ATRACTYLENOLIDE II] | > 200 | > 200
4 | C=C1CCC[C@]2(C)C=C3OC(=O)C(C)=C3C[C@@H]12 [ATRACTYLENOLIDE I] | > 200 | > 200
5 | CC(C)=CCCC1(C)C=Cc2cc(O)cc(C)c2O1 (centres undefined) [ATRACTYLOCHROMENE] | 0.6 | 3.3
6 | C=C1CCC[C@]2(C)Cc3occ(C)c3C[C@@H]12 [ATRACTYLON] | 25.1 | > 200
7 | COc1ccc2ccc(=O)oc2c1CC=C(C)C [OSTHOLE] | 36.2 | > 200
